# From patent US20230049350A1, “COMPOUNDS FOR TREATING BRAIN CANCER” (Purdue Pharmaceutical Products L.P., priority 2014, published 2023)
# Like-named read-outs stand apart in the source and are kept apart here.
# Key:
# U87 tumours = test: Mice with implanted U87 tumours, time to progression (Example 3); assay type: in vivo; conditions: 60 mg/kg iv days 1, 8 and 15, FIG. 9
# Procedure: The above procedure was followed in similar manner using the cell lines U87G and U251G. Once again, EDO-S101 (60 mg/kg) was administered intravenously via the tail vein, but in these experiments it was administered at days 1, 8 and 15. In place of bendamustime, TMZ was administered as a comparison at 16 mg/kg for 5 consecutive days, po. The mice were sacrificed after 28 days.
# [1] = CNS pharmacokinetics by blood and brain-ventricle microdialysis, CE-UV; assay type: in vivo, Sprague-Dawley Rats; conditions: Sprague-Dawley, rat; for Cmax: intravenous, 40 mg/kg tail vein injection; for AUC(0-t): read-out: AUC (0-12) (converted); for half-life: iv, 40 mg/kg
# Procedure: CNS pharmacokinetics was determined in rats after a tail vein injection of EDO-S101 at 40 mg/kg. Microdialysate samples were collected from the blood and a ventricle of the brain via microdialysis probes at 18 time intervals. The drug concentrations in these samples were determined by capillary electrophoresis with UV detection (CE-UV) followed by calculations for various pharmacokinetic parameters.
# Six rats were anesthetized with gasiform isoflurane (1% isoflurane in a mixture of 20% oxygen and 80% nitrogen gas) and immobilized in a stereotaxic frame (KOPF Instruments, Tujunga, CA). Anaesthesia was maintained during the entire procedure. Each guide cannula (CMA Microdialysis Inc., Acton, MA) was stereotactically implanted into the lateral ventricle (AP -0.9, L 1.6, V 3.4, relative to bregma and skull), then secured to the skull by screws and dental cement. Following surgery, each rat was housed individually with food and water ad libitum for 3 days for recovery from cannulation surgery. Microdialysis experiments were carried out on conscious, freely moving rat. On the day of the experiment, the stylet in the guide cannula was replaced with the microdialysis probe (CMA/11 with 4 mm membrane, CMA Microdialysis Inc., Acton, MA) and a vascular microdialysis probe (CMA/20 with 4 mm membrane, CMA Microdialysis Inc, Acton, MA)) was implanted into the jugular vein. The probes had inlet tubes connected to syringes to deliver artificial cerebrospinal fluid (146 mM NaCl, 1.2 mM CaCl2, 3 mM KCI, 1 mM MgCl2, 1.9 mM Na2HPO4, 0.1 mM NaH2PO4, pH 7.4) into the ventricle and Dulbecco’s phosphate-buffered saline (D-PBS) into the blood at 0.5 µl/min flow rate. The outlet tubes were connected to a microfraction collector for collecting the microdailysates at 4° C. The rats were allowed to recover for at least 24 hours prior to dosing. Eighteen samples were collected over 3 hours after EDO-S101 injection (intravenously). All samples were applied to the capillary electrophoresis with UV detection (CE-UV) for the determination of concentration of EDO-S101 in the cerebrospinal fluid (CSF) and blood. The rats were sacrificed using CO2 inhalation after the experiment. The position of the probe was verified by visual inspection at the end of each experiment.
# EDO-S101 in the microdialysate were measured by CE-UV (Agilent 3D CE). Briefly, the capillaries were preconditioned with 1 M sodium hydroxide for 2 min, water for 2 min and running buffer [100 mmol/l solution of ammonium acetate (adjust to pH 3.1 with acetic acid)-acetonitrile (50:50, v/v) ] for 3 min. The samples were injected at a pressure of 0.7 psi for 5 s and the injection volume was approximately 5 nl. After injection, EDO-S101 was separated in a fused silica capillary of 50 µm I.D. and 50/65 cm length (effective length/total length) under 15 kv and 25° C. The absorbance from EDO-S101 was detected with UV at […]. […].
# To perform a statistical analysis on the data, a two-way repeated measures ANOVA followed by Tukey’s test was used. P<0.05 was considered significant. CNS penetration is determined as the ratio of CSF and blood area under the curve (AUC).
# [2] = CSF (brain lateral ventricle microdialysate), Brain (CSF), 40 mg/kg iv
# [3] = blood (jugular vein microdialysate), Blood, 40 mg/kg iv
smiles,measurement,setting,value
Cn1c(CCCCCCC(=O)NO)nc2cc(N(CCCl)CCCl)ccc21 [EDO-S101],time to progression (TTP) versus control and TMZ,U87 tumours,significantly longer
same,Cmax,"[1]; CSF (brain lateral ventricle microdialysate), Brain (CSF)",11.2 µM
same,Tmax,[1]; [2],5.67 min
same,AUC(0-t),[1]; [2],2.27 µM·h
same,Cmax,"[1]; blood (jugular vein microdialysate), Blood",184 µM
same,Tmax,[1]; [3],2.33 min
same,AUC(0-t),[1]; [3],13.7 µM·h
same,half-life,[1]; [2],~9 min
same,half-life,[1]; [3],~6 min
same,Kp,"[1]; ratio of CSF and blood AUC, 40 mg/kg iv, read-out: AUC ratio (Brain:Blood), CNS penetration",0.165
